In paper PMC10359466, “Identification of a small-molecule inhibitor that selectively blocks DNA-binding by Trypanosoma brucei replication protein A1” (Nature Communications, 2023):
Where “and” joins values, the source holds several entries; their conditions need not be identical. Identical values can stand only once. Entries after “also recorded” stand apart in the source; their conditions may differ.

Assays:
[1] = system: TbRPA complex containing S105T mutation; assay type: binding, T. brucei; settings: dT32
T. brucei cells = experiment: DNA synthesis assay by BrdU pulse labeling; assay type: cell-based, Trypanosoma brucei; settings: 10 µM, after 8 h of treatment
Method: The 5-Bromo-2′-deoxyuridine (BrdU) incorporation assay was performed as described previously in ref. [49]. BrdU (Sigma-Aldrich, catalog number B5002) was added to cell cultures to a final concentration of 500 μM and incubated for 40 min at 37 °C. About 20 million cells were harvested and fixed in ice-cold 70% ethanol. DNA in fixed cells was denatured in 0.1 N HCl (Fisher Scientific) with 0.5% Tween 20 (Sigma-Aldrich) and 1% BSA (Jackson Immunoresearch) for 20 min at room temperature. To stain newly incorporated DNA, fixed cells were incubated with 1 µg/ml mouse anti-BrdU antibody (BD Pharmingen, catalog number 555627, lot 6084615, dilution 1:500) at room temperature for 2.5 h and then with 4 µg/ml donkey anti-mouse Alexa 488 (Invitrogen, catalog number A-21202, lot 94C2-1, dilution 1:500) at room temperature for 1 h in the dark. Bulk DNA was stained with 5 µg/ml PI by incubating at room temperature for 30 min in the dark. Samples were analyzed by flow cytometry (FACSVia, BD Biosciences) and FlowJo.

TbRPA1 DBD-AB S105T = experiment: MST inhibition of ssDNA-binding activity, TbRPA1 DBD-AB S105T mutant; set-up: species or system T. brucei; settings: dT32, 30 nM protein
Source text: (§1) Samples were then loaded into MST capillaries.
(§2) We used one site binding to obtain a dissociation constant (Kd) and standard 4-parameter logistic curve (Sigmoidal curve) analysis to obtain the IC50 value of JC-229. We used GraphPad Prism software.

TcRPA1 DBD-AB [2] = experiment: EMSA inhibition of ssDNA binding, TcRPA1 DBD-AB; set-up: species or system T. cruzi
TcRPA1 DBD-AB [3] = experiment: MST inhibition of ssDNA-binding activity, TcRPA1 DBD-AB; set-up: species or system T. cruzi; settings: dT32, 30 nM protein
Source text: as §1, §2

TcRPA1 DBD-AB T105S = target: T1, TcRPA1 DBD-AB T105S (Trypanosoma cruzi, UniProt Q4DXC9, T105S); experiment: MST inhibition of ssDNA-binding activity, TcRPA1 DBD-AB T105S mutant; set-up: species or system T. cruzi
T1 sequence (Q4DXC9 1-247 T105S): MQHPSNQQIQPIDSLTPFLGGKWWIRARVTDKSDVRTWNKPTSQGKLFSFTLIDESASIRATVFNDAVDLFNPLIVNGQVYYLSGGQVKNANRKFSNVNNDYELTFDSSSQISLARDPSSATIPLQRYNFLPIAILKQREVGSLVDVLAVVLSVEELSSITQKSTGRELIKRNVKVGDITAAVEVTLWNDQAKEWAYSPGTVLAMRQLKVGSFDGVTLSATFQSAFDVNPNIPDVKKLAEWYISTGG
Source text: as §1, §2

HeLa = experiment: AlamarBlue cell viability of HeLa cells; assay type: cell-based, human
Method: To determine the inhibitory effect of JC-229 on human cells, HeLa and HEK293 cells were suspended in 180 μl D-MEM with 10% FBS and plated at a density of 2 × 10^4 cells/ml in triplicate. […] Percent viability was plotted using GraphPad Prism software. […] We estimated the EC50 values using the concentration of JC-229 that causes a 50% reduction of cell viability (inhibitor vs. normalized response, variable slope).

[4] = target: T2, HsDBD-F and ATRIP interaction (Homo sapiens, UniProt P27694); experiment: MST inhibition of the HsDBD-F binding with ATRIP peptide; settings: 50 nM Cy5-labeled ATRIP peptide
T2 construct: We purified 6xHis-HsDBD-F (amino acids 1–181), synthesized ATRIP peptide; made in house; host or cells: E. coli BL21 (protein); solid-phase synthesis (peptide)
Source text: as §1, §2

TbRPA complex = TbRPA complex (Trypanosoma brucei brucei, UniProt Q384B5); experiment: EMSA inhibition of ssDNA binding, TbRPA complex
HsRPA1 DBD-AB = target: T3, HsRPA1 DBD-AB (Homo sapiens, UniProt P27694); experiment: MST inhibition of ssDNA-binding activity, HsRPA1 DBD-AB; settings: dT32, MST
T3 construct: were generated by PCR-amplifying the DBD-AB domain and cloning into a pET28a vector; made in house; host or cells: E. coli BL21
Source text: as §1, §2

T2 sequence (P27694 1-181): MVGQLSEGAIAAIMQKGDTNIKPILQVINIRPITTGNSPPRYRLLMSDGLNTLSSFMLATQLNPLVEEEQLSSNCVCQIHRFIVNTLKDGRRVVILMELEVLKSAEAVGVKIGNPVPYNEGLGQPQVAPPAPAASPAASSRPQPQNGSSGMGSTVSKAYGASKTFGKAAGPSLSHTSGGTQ
T3 sequence (P27694 181-427 limits assumed): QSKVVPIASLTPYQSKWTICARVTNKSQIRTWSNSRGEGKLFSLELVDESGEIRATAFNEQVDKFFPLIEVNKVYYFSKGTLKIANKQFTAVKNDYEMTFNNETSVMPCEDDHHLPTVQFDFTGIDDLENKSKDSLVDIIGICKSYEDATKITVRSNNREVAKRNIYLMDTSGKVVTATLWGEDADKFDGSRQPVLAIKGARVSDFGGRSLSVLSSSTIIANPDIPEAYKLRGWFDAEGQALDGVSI
Chain of TbRPA complex (Q38DK0 entry or part of it): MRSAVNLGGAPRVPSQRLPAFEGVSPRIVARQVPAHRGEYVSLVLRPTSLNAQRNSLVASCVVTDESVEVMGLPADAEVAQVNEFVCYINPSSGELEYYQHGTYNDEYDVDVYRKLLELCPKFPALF
Chain of TbRPA complex (Q57ZN9 entry or part of it, further chain): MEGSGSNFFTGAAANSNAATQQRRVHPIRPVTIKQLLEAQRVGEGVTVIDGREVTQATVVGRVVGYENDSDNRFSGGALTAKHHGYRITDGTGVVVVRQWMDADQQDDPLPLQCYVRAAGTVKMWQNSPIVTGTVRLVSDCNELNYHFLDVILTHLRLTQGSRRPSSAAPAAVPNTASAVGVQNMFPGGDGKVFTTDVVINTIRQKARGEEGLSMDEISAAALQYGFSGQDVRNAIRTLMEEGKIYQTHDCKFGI
Chain of TbRPA complex (Q384B5 entry or part of it): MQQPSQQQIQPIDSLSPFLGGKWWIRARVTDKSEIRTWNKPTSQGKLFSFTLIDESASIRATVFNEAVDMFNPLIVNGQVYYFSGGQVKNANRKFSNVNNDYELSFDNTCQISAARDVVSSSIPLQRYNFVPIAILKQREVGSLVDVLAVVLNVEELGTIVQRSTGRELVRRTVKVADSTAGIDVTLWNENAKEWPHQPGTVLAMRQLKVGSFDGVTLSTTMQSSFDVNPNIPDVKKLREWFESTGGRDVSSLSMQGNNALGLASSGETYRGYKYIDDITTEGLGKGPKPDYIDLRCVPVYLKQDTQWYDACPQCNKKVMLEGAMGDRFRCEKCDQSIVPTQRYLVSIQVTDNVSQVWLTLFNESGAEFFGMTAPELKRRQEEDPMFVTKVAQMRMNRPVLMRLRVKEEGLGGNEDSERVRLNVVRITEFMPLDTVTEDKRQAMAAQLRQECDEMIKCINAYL

Structure (SMILES): Cc1ccc(C(=O)Nc2ccc(Cl)c(Cl)c2)cc1S(=O)(=O)Nc1ccc(Cl)c(Cl)c1 [JC-229, N-(3,4-dichlorophenyl)−3-(N-(3,4-dichlorophenyl)sulfamoyl)−4-methylbenzamide]
- Effect on ssDNA binding of TbRPA S105T mutant complex (EMSA) [1]: not affected
- New DNA synthesis (BrdU incorporation) (T. brucei cells): completely blocked new DNA synthesis; also recorded: completely blocking DNA synthesis
- IC50, inhibition of TbRPA1 DBD-AB S105T ssDNA binding (TbRPA1 DBD-AB S105T): No inhibition; also recorded: did not inhibit
- Inhibition of TcRPA1 DBD-AB ssDNA binding (EMSA) (TcRPA1 DBD-AB [2]): did not inhibit
- IC50, inhibition of TcRPA1 DBD-AB ssDNA binding (TcRPA1 DBD-AB [3]): No inhibition; also recorded: did not inhibit
- IC50 (TcRPA1 DBD-AB T105S): 159 µM
- Inhibition of HeLa at EC50 to T. brucei (HeLa; 6.5 µM): barely inhibited
- EC50 (HeLa; Homo sapiens, HeLa, 72 h, 0.5-50 μM, 72 h, AlamarBlue, inhibitor vs. normalized response, variable slope (Fig. 3f)): 32 µM
- EC50 (HeLa; Homo sapiens, HeLa, 72 h, Sigmoidal, 4-PL (Suppl. Table 1-B)): 13.2 µM
- inhibition at 50 µM (HeLa; Homo sapiens, HeLa, 50 µM, 72 h, read-out: Inhibition of HeLa at maximum concentration): < 100%
- IC50 [4]: ~60 µM and 60.8 µM
- Inhibition of TbRPA complex binding to ssDNA (EMSA) (TbRPA complex): inhibited
- IC50, inhibition of HsRPA1 DBD-AB ssDNA binding (HsRPA1 DBD-AB): No inhibition; also recorded: no inhibitory effect
